Reference: PMC3897205 (Bioorganic & medicinal chemistry letters, 2012)

Experiments:
hM1 [1] = biological target: T1, hM1 (Homo sapiens, UniProt P11229); format: cell-based; conditions: for hM1 antagonist activity in words: SAR discussion of Table 1 analogs; for change in hM1 antagonist potency relative to a comparator compound: fold change in words
T1 sequence (P11229 1-460): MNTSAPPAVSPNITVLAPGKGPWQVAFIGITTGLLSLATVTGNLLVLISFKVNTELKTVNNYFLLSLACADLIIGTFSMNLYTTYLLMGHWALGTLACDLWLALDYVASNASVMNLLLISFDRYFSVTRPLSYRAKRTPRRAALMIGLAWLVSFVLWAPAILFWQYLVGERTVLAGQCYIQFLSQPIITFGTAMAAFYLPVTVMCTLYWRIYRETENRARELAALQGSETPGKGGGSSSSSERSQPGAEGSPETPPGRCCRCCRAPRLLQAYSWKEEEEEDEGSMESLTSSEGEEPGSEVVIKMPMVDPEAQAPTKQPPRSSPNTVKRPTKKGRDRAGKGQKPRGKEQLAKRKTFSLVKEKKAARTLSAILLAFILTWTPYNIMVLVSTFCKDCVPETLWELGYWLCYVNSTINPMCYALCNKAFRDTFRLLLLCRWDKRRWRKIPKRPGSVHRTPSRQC

M1 = biological target: T2, M1 (Homo sapiens, UniProt P11229); assay: Schild analysis, calcium mobilization in M1-expressing CHO cells; format: cell-based; conditions: for Schild regression slope: antagonism of ACh, mean ± S.E.M. of three experiments in triplicate; for mode of antagonism of M1 response to ACh: calcium mobilization assay
T2 sequence (P11229 1-460): T1 sequence (P11229 1-460)

hM1 [2] = biological target: T1, hM1; assay: [3H]NMS radioligand displacement at hM1 under equilibrium conditions; format: binding

SMILES	hM1 antagonist activity in words (hM1 [1])	change in hM1 antagonist potency relative to a comparator compound (hM1 [1])	also measured
O=C(C(Cc1ccccc1)c1ccccc1)N1CCN(c2ccncc2)CC1 (centres unmarked) [Compound 5s]	minimal antagonist activity		
CN1CCCN(C(=O)C(Cc2ccccc2)c2ccccc2)CC1 (centres unmarked) [Compound 5u]		only a twofold decrease in potency	
CC(C)N1CCCN(C(=O)C(Cc2ccccc2)c2ccccc2)CC1 (centres unmarked) [Compound 5w]	retained moderate potency		
CN1CCN(C(=O)C(Cc2ccccc2)c2ccccc2)CC1 (centres unmarked) [Compound 4]		roughly fourfold improvement in antagonist potency	
CCN1CCN(C(=O)C(Cc2ccccc2)c2ccccc2)CC1 (centres unmarked) [Compound 5a]		sixfold drop in potency	
O=C(C(Cc1ccccc1)c1ccccc1)N1CCN(CC(F)(F)F)CC1 (centres unmarked) [Compound 5t]	complete loss of activity		
CC(C)N1CCN(C(=O)C(Cc2ccccc2)c2ccccc2)CC1 (centres unmarked) [Compound 5b]		only a minor potency decrease	
CCN1CCCN(C(=O)C(Cc2ccccc2)c2ccccc2)CC1 (centres unmarked) [Compound 5v]		roughly equipotent with 4	
CCN1CCN(C(=O)C(Cc2ccccc2)c2ccccc2)CC1(C)C (centres unmarked) [Compound 5g]		increase potency roughly sixfold	
O=C(C(Cc1ccccc1)c1ccccc1)N1CCCNCC1 (centres unmarked) [Compound 5z]	nearly complete loss of activity		
CCN1CCN(C(=O)C(Cc2ccccc2)c2ccccc2)CC1C (centres unmarked) [Compound 5f]		increase potency roughly sixfold	
COCCN1CCN(C(=O)C(Cc2ccccc2)c2ccccc2)CC1 (centres unmarked) [Compound 5r]	significant drop in potency		
CN1CCN(C(=O)[C@H](Cc2ccccc2)c2ccccc2)CC1 (single isomer, unassigned) [Compound 6]	moderate improvement in potency		Schild regression slope (M1): 0.97 ± 0.02; mode of antagonism of M1 response to ACh (M1): competitively antagonizes M1 response to ACh in a concentration-dependent manner; displacement of radiolabeled NMS (hM1 [2]): completely displace radiolabeled NMS
CN1CCN(C(=O)[C@@](F)(Cc2ccccc2)c2ccccc2)CC1 (single isomer, unassigned) [Compound 8f]			Schild regression slope (M1): 1.07 ± 0.02; mode of antagonism of M1 response to ACh (M1): competitively antagonizes M1 response to ACh in a concentration-dependent manner; displacement of radiolabeled NMS (hM1 [2]): completely displace radiolabeled NMS; selectivity for hM1 (hM1 [1]; against hM1-5, calcium mobilization assay): modest selectivity for hM1
O=C(C(Cc1ccccc1)c1ccccc1)N1CCNCC1 (centres unmarked) [Compound 5d]	loss of activity		
C[N+]1(C)CCN(C(=O)C(Cc2ccccc2)c2ccccc2)CC1 (centres unmarked) [Compound 5h]	only modest activity		
CN(C)CCN(C)C(=O)C(Cc1ccccc1)c1ccccc1 (centres unmarked) [Compound 5n]	large losses in potency		
CC(C)CN1CCN(C(=O)C(Cc2ccccc2)c2ccccc2)CC1 (centres unmarked) [Compound 5c]	nearly abolished antagonist activity		
O=C(C(Cc1ccccc1)c1ccccc1)N1CC[C@H]2CCCN2CC1 (some centres unmarked) [Compound 5y]	retained moderate potency		
CN(C)CCNC(=O)C(Cc1ccccc1)c1ccccc1 (centres unmarked) [Compound 5m]	large losses in potency		
